According to publication PMC9945734 (BMC Medicine, 2023):
Like-named read-outs stand apart in the source and are kept apart here.

Test system: PC-3-KQ cells
Experiment: 3D spheroid invasion assay and screening of FDA-approved drugs
Assay type: cell-based, human
Details: compared to vehicle control; for activity at 0.01 µM / activity at 0.1 µM / activity at 1 µM / activity at 10 µM: Homo sapiens, 72 h, read-out: Invasion rates (%) of each drug’s multiple concentrations
Experimental: The invasion assay was performed as previously described. […] The plates were then centrifuged at 320 g for 4 min to cluster cells in the bottom of wells and incubated for 3 days. On the fourth day, 40 μL medium was removed from each well, 40 μL of the matrigel-medium mixture was added to each well, and cells were cultured for another 3 days. […] At the end of the incubation, images were taken using a phase contrast microscope (Eclipse Ti2, Nikon, Tokyo, Japan) with 10× object lenses, and the total area of cells and the core sphere area of cells (Fig. 1a) were measured using the Image J software. The invading area was calculated using the following formula: invasion area = total area of cells – core sphere area.
For drug screening, drugs were added to the matrigel-medium mixture when replacing the culture medium on day 4. For the initial round of screening, a final concentration of 10 μM was used for all drugs. Multiple drug concentrations were used for the second round of screening, including 0, 0.001, 0.01, 0.1, 1, and 10 μM. Duplicate wells were repeated for each concentration.

[1] = 0.01 μM (first column so headed), secondary screening of 87 hit compounds (Table S1)
[2] = 0.01 μM (second column so headed), secondary screening of 87 hit compounds (Table S1)
[3] = 0.1 μM, secondary screening of 87 hit compounds (Table S1)
[4] = 1 μM, secondary screening of 87 hit compounds (Table S1)
[5] = 10 μM, secondary screening of 87 hit compounds (Table S1)
[6] = 0.01 μM (first column so headed), third screening of 25 hit compounds (Table S2)
[7] = 0.01 μM (second column so headed), third screening of 25 hit compounds (Table S2)
[8] = 0.1 μM, third screening of 25 hit compounds (Table S2)
[9] = 1 μM, third screening of 25 hit compounds (Table S2)
[10] = 10 μM, third screening of 25 hit compounds (Table S2)

| SMILES | activity at 0.01 µM [1] | activity at 0.01 µM [2] | activity at 0.1 µM [3] | activity at 1 µM [4] | activity at 10 µM [5] | Invasion rates (%) of each drug’s multiple concentrations (μM) [1] | Invasion rates (%) of each drug’s multiple concentrations (μM) [2] | Invasion rates (%) of each drug’s multiple concentrations (μM) [3] | Invasion rates (%) of each drug’s multiple concentrations (μM) [4] | Invasion rates (%) of each drug’s multiple concentrations (μM) [5] | other results |
| --- | --- | --- | --- | --- | --- | --- | --- | --- | --- | --- | --- |
| CCN(CC)CCNC(=O)c1c(C)[nH]c(/C=C2\C(=O)Nc3ccc(F)cc32)c1C [Sunitinib] | 88.6% | 94.9% | 83.7% | 61.1% | 0.8% |  |  |  |  |  |  |
| CN(C)C(=O)c1cc2cnc(Nc3ccc(N4CCNCC4)cn3)nc2n1C1CCCC1 [Ribociclib] | 99.5% | 101% | 97.2% | 96% | 30.9% |  |  |  |  |  |  |
| COc1cc2ncnc(Nc3ccc(F)c(Cl)c3)c2cc1OCCCN1CCOCC1 [Gefitinib] | 86.8% | 85.3% | 77.8% | 60.2% | 27.4% |  |  |  |  |  |  |
| CNC[C@H](O)[C@@H](O)[C@H](O)[C@H](O)CO.Nc1nc(-n2cc(C(=O)O)c(=O)c3cc(F)c(N4CC(O)C4)c(Cl)c32)c(F)cc1F [Delafloxacin (meglumine)] |  |  |  |  |  | 85.63% | 84.75% | 73.78% | 2.08% | 1.54% | Invasion rates (%) of each drug’s multiple concentrations (μM) [6]: 93.02%; Invasion rates (%) of each drug’s multiple concentrations (μM) [7]: 86.37%; Invasion rates (%) of each drug’s multiple concentrations (μM) [8]: 82.73%; Invasion rates (%) of each drug’s multiple concentrations (μM) [9]: 1.96%; Invasion rates (%) of each drug’s multiple concentrations (μM) [10]: 0.81% |
| CC[C@@]1(O)C[C@H](O[C@H]2C[C@H](N(C)C)[C@H](O[C@H]3C[C@H](O)[C@H](O[C@H]4CCC(=O)[C@H](C)O4)[C@H](C)O3)[C@H](C)O2)c2c(cc3c(c2O)C(=O)c2c(O)cccc2C3=O)[C@H]1C(=O)OC.Cl [Aclacinomycin A hydrochloride] |  |  |  |  |  | 84.24% | 96.55% | 76.95% | 81.36% | 1.28% |  |
| C=CC(=O)Nc1cc(Nc2nccc(-c3cn(C)c4ccccc34)n2)c(OC)cc1N(C)CCN(C)C [Osimertinib] | 89% | 98.8% | 86.4% | 83.8% | 5.6% |  |  |  |  |  |  |
| CNC(=O)c1cc(Oc2ccc(NC(=O)Nc3ccc(Cl)c(C(F)(F)F)c3)cc2)ccn1 [Sorafenib] | 91.9% | 101% | 91.9% | 76.2% | 43.3% |  |  |  |  |  |  |
| CO[C@@H]1[C@H](N(C)C(=O)c2ccccc2)C[C@H]2O[C@]1(C)n1c3ccccc3c3c4c(c5c6ccccc6n2c5c31)C(=O)NC4 [Midostaurin] | 97.5% | 98.7% | 96% | 95.8% | 34.3% |  |  |  |  |  |  |
| CN1C[C@@H]2C[C@H]1CN2c1cc2c(cc1F)c(=O)c(C(=O)O)cn2C1CC1.CS(=O)(=O)O [Danofloxacin (mesylate)] |  |  |  |  |  | 94.09% | 90.56% | 86.22% | 14.57% | 3.38% | Invasion rates (%) of each drug’s multiple concentrations (μM) [6]: 93.23%; Invasion rates (%) of each drug’s multiple concentrations (μM) [7]: 98.11%; Invasion rates (%) of each drug’s multiple concentrations (μM) [8]: 87.17%; Invasion rates (%) of each drug’s multiple concentrations (μM) [9]: 77.40%; Invasion rates (%) of each drug’s multiple concentrations (μM) [10]: 2.06% |
| Cc1ncc([N+](=O)[O-])n1C[C@@H](CN1CCOCC1)OP(=O)(O)O [Dextrorotation nimorazole phosphate ester] |  |  |  |  |  | 97.64% | 99.79% | 97.40% | 85.31% | 35.28% |  |
| Cc1ncc([N+](=O)[O-])n1CC(C)O (stereo not shown) [Secnidazole] | 94.7% | 96.4% | 89% | 82.8% | 4.4% |  |  |  |  |  |  |
| Cn1nnc(-c2ccc(-c3ccc(N4C[C@H](COP(=O)(O)O)OC4=O)cc3F)cn2)n1 [Tedizolid (phosphate)] | 89% | 91.7% | 70.7% | 3.59% | 3.35% |  |  |  |  |  | activity at 0.01 µM [6]: 99.8%; activity at 0.01 µM [7]: 96.1%; activity at 0.1 µM [8]: 90.7%; activity at 1 µM [9]: 3.28%; activity at 10 µM [10]: 2.87% |
| Cc1cc(Nc2ncc(Cl)c(Nc3ccccc3S(=O)(=O)C(C)C)n2)c(OC(C)C)cc1C1CCNCC1.Cl.Cl [Ceritinib dihydrochloride] |  |  |  |  |  | 88.46% | 86.07% | 92.06% | 86.82% | 39.86% |  |
| CC(=O)OC[C@H]1O[C@@H]([S-])[C@H](OC(C)=O)[C@@H](OC(C)=O)[C@@H]1OC(C)=O.CCP(CC)CC.[Au+] [Auranofin] |  |  |  |  |  | 98.81% | 100.66% | 95.62% | 2.03% | 0.38% | Invasion rates (%) of each drug’s multiple concentrations (μM) [6]: 93.68%; Invasion rates (%) of each drug’s multiple concentrations (μM) [7]: 97.35%; Invasion rates (%) of each drug’s multiple concentrations (μM) [8]: 88.21%; Invasion rates (%) of each drug’s multiple concentrations (μM) [9]: 2.34%; Invasion rates (%) of each drug’s multiple concentrations (μM) [10]: 0.76% |
| CN(C)c1ccc(O)c2c1C[C@H]1C[C@H]3[C@H](N(C)C)C(=O)C(C(N)=O)=C(O)[C@@]3(O)C(=O)C1=C2O.Cl [Minocycline (hydrochloride)] |  |  |  |  |  | 87.07% | 98.27% | 80.93% | 62.17% | 5.40% |  |
| Cn1cnc([N+](=O)[O-])c1Sc1ncnc2nc[nH]c12 [Azathioprine] | 85.2% | 91.6% | 80% | 68.3% | 33.5% |  |  |  |  |  |  |
| Cc1ncc([N+](=O)[O-])n1CC(O)CCl (stereo not shown) [Ornidazole (Levo-)] |  |  |  |  |  | 90.43% | 93.59% | 87.04% | 71.01% | 4.84% |  |
| COc1cc2ncnc(Nc3ccc(F)c(Cl)c3)c2cc1NC(=O)/C=C/CN1CCCCC1 [Dacomitinib] | 78.1% | 77.8% | 73.1% | 44.7% | 5.75% |  |  |  |  |  | activity at 0.01 µM [6]: 98.9%; activity at 0.01 µM [7]: 102%; activity at 0.1 µM [8]: 98.6%; activity at 1 µM [9]: 90.7%; activity at 10 µM [10]: 53.9% |
